Experimental data from patent US20250296955A1, “PIN1 TARGETING COMPOUNDS AND DEGRADERS AND METHODS THEREOF” (The Regents of the University of California, priority 2024, published 2025).
Read-outs that look alike come from different tables or passages of the source. *1 amine or outer side, *2 acyl side, *3 side chain or, on linkers, in order; H or OH if unused. Where a SMILES comes first, the peptide text is derived from it. [ ]: non-standard residue; d: D form. The star is where a group is joined. ξ: configuration not given here. Trp(5-OMe) = COc1ccc2[nH]cc(C[C@H](N)C(=O)O)c2c1; Trp(6-Cl) = N[C@@H](Cc1c[nH]c2cc(Cl)ccc12)C(=O)O; X1 = CC(OP(=O)(O)O)[C@@H](N[*:1])C(=O)[*:2]; 2Nal = N[C@@H](Cc1ccc2ccccc2c1)C(=O)O; Pip = O=C(O)[C@@H]1CCCCN1; ξPip = O=C(O)C1CCCCN1; ClAc = O=C(CCl)*

Legend:
Pin1 [1] = target: T1, Pin1 (Homo sapiens, UniProt Q13526); assay: DELFIA displacement assay (displacement of biotinylated D-peptide from 6His-Pin1); format: binding; parameters: human Pin1 (residues 1-163); made in house; host or cells: E. coli BL21 (DE3) gold pLysS
Description: (§1) Important to the success of structure activity relations studies, robust biochemical, biophysical, and cell-based assays were implemented that enabled rapid and iterative evaluations of test Pin1 targeting agents. First, the DELFIA (Dissociation-enhanced lanthanide fluorescent immunoassay) assay platform was used to derive a robust heterogeneous assay to monitor the ability of test agents to displace the binding between Pin1 and the D-Peptide (Table 1), which was obtained in a biotinylated form (FIG. 10). […] Second, for an orthogonal biophysical assay denaturation thermal shift measurements were used. Pin1 was incubated with vehicle control (buffer with 1% DMSO), or test agents at protein: ligand ratio of 1:2 (20 μM protein-40 μM compound) for 10 min at 10° C. in the presence of the fluorescent dye SYPRO Orange. The samples were gradually exposed to increasing temperature (linear gradient from 10° C. to 95° C.), causing the protein to unfold. This unfolding allowed the fluorescent dye to bind to the protein's exposed hydrophobic residues, resulting in an increase in fluorescence. The thermal shift assay measures the protein's melting temperature (Tm), which is the temperature at which the protein denatures by 50%. Ligands can affect a protein target to thermal denaturation, which could manifest in a positive or negative shift in the protein denaturation temperature (ΔTm) (Bai N, Roder H, Dickson A, & Karanicolas J (2019) Scientific Reports 9; and Kranz J K & Schalk-Hihi C (2011) Fragment-Based Drug Design: Tools, Practical Approaches, and Examples 493:277-298). Using these two assays, a series of commercially available Pin1 inhibitors were profiled (Table 1). The non-covalent agent D-peptide resulted only moderately active, with an IC50 value of ˜3 μM that closely resembled the dissociation constant for this agent determined via isothermal titration calorimetry, and the ˜ 3 μM IC50 value as reported by a fluorescence polarization assay (Pinch B J, et al. (2020) Nat Chem Biol 16(9):979-987). […] (Table 1) was observed.
For the reported covalent agents such as sulfopin (Dubiella C, et al. (2021) Nat Chem Biol 17(9):954-963), BJP-07-017-3 (Pinch B J, et al. (2020) Nat Chem Biol 16(9):979-987), or KPT-6566 (Campaner E, et al. (2017) Nat Commun 8:15772), a 6-h pre-incubation period was included in the DELFIA assay to allow the covalent reaction to take place. For those agents, IC50 values that fell in the low nanomolar range were observed, consistent with what was reported previously for those compounds. […] To make those determinations in a broader panel of cancer cell lines three pancreatic cancer cell lines, BxPC3, MIA-PaCa-2, and PANC-1, the breast cancer cell line MDA-MB-231, the prostate cancer cell line PC3, and the non-small cell lung cancer cell line A549 were chosen. Each cell line represents various states of KRAS activating mutations (for example BxPC3 is wt-KRAS, while MIAPaCa2 carries the KRAS(G12C) mutation, and the PANC-1 the KRAS(G12D) (Miquel M, Zhang S, & Pilarsky C (2021) Front Cell Dev Biol 9:748631), A549 is KRAS(G12S) (Wang H, et al. (2019) EBioMedicine 49:106-117), MDA-MB-231 is KRAS(G13D) (Kim R K, et al. (2015) Exp Mol Med 47(1):e137), PC3 is wt-KRAS (Bouali S, et al. (2009) Oncol Rep 21(3):731-735). Pin1 protein levels in these cell lines were established using a specific Pin1 antibody in western blot analyses (FIG. 1A). The data confirmed that all these selected human cancer cell lines expressed a significant level of Pin1 (FIG. 1A).
Each well of 96-well streptavidin-coated plates (PerkinElmer) was incubated with 100 μL of 200 nM biotinylated D-peptide for 2 h and washed 3 times with a wash solution (PerkinElmer). Subsequently, a mixture containing Pin1, and a serial dilution of the test compounds were pre-incubated for 6 h. Eu-N1-labeled anti-6x-His antibody (PerkinElmer, 1:2000) was then added to this mixture and further incubated in the biotinylated D-peptide-bound plates for another 2 h. […]

Pin1 [2] = target: T1, Pin1; assay: Denaturation thermal shift assay (SYPRO Orange); format: binding; parameters: human Pin1 (residues 1-163); made in house; host or cells: E. coli BL21 (DE3) gold pLysS; details: for ΔTm (° C.) 30 min: Table 1, Protein:compound 1:2, 20X Sypro Orange, 50 mM phosphate pH 7.5, 150 mM NaCl, 3% DMSO; for ΔTm: running text and figure legends
Description: as §1
Thermal shift assays for Pin1 alone and in the presence of the inhibitors were obtained with a BioRad CFX Connect Real-Time PCR Detection System. Each data point was collected in quadruplicate. Each sample was prepared using buffer 50 mM Phosphate pH 7.5, 150 mM NaCl, 1% DMSO. Protein: ligand ratio used was 1:2 (20 μM protein-40 μM compound), and SYPRO Orange was used. Incubation of the Pin1 protein with the compounds was performed at 10° C. for 10 min. Samples were then heated from 10 to 95° C. with heating increments of 0.05° C., over 30 min. Fluorescence intensity was measured within the excitation/emission ranges 470-505/540-700 nm.

Pin1 [3] = target: T1, Pin1; details: Pinch B J, et al. (2020); read-out: IC50 value as reported by a fluorescence polarization assay; cited from earlier work
Pin1 [4] = target: T1, Pin1; assay: Pin1 degradation in BxPC3 cells (western blot); format: cell-based; details: Bx-PC3 cell line, 25 μM, 24 h (FIG. 1B)
Description: Next, each cell line was exposed to a relatively high concentration of each of the Pin1 inhibitors from Table 1 and measured their ability to cause Pin1 degradation in the Bx-PC3 cell line under the experimental conditions reported in FIG. 1B. […] It was hypothesized that this observed degradation in the series correlated with the increased sensitivity of Pin1 to thermal degradation induced by BJP-07-017-3 in vitro (Table 1).
(§2) BxPC3, MIA PaCa-2, PANC-1, MDA-MB-231, and PC3 were obtained from the American Type Culture Collection (ATCC) and A549 NucLight Red cells were purchased from Essen Bioscience. BxPC3 and PC3 cells were cultured in RPMI (Corning) while PANC-1 cells were cultured in DMEM (Corning). MIA PaCa-2 cells were also cultured in DMEM, but with the addition of 2.5% horse serum. A549 NucLight cells were cultured in a Ham's F-12 nutriend mixture with GlutaMAX-1 (Gibco). All of the culture media were supplemented with 10% FBS. […]
(§3) At the end of the treatments, cells were lysed with a lysis buffer containing 20 mM Tris, pH 7.4, 120 mM NaCl, 1% Triton X-100, 0.5% sodium deoxycholate, 0.1% SDS, 1% IGEPAL, 5 mM EDTA, protease inhibitor cocktail and PhosSTOP (Sigma-Aldrich). […] Protein concentrations were determined using the Pierce BCA Protein Assay Kit (ThermoFisher Scientific) according to the manufacturer's instruction. […]

Pin1 [5] = target: T1, Pin1; assay: Pin1 degradation in MIA PaCa-2 cells (western blot); format: cell-based; details: after 24 h (FIG. 14C)
Procedure: BxPC3, MIA PaCa-2, PANC-1, MDA-MB-231, and PC3 were obtained from the American Type Culture Collection (ATCC) and A549 NucLight Red cells were purchased from Essen Bioscience. BxPC3 and PC3 cells were cultured in RPMI (Corning) while PANC-1 cells were cultured in DMEM (Corning). MIA PaCa-2 cells were also cultured in DMEM, but with the addition of 2.5% horse serum. A549 NucLight cells were cultured in a Ham's F-12 nutriend mixture with GlutaMAX-1 (Gibco). All of the culture media were supplemented with 10% FBS. MDA-MB-231 cells were nuclear-labeled red (MDA-MB-231 NucLight Red) with the IncuCyte NucLight lentivirus reagent (Essen Bioscience) according to the manufacturer's protocol and were cultured in DMEM supplemented with 10% FBS and 1 μg/mL puromycin. Cells were all maintained at 37° C. in a humidified incubator with 5% CO2.
At the end of the treatments, cells were lysed with a lysis buffer containing 20 mM Tris, pH 7.4, 120 mM NaCl, 1% Triton X-100, 0.5% sodium deoxycholate, 0.1% SDS, 1% IGEPAL, 5 mM EDTA, protease inhibitor cocktail and PhosSTOP (Sigma-Aldrich). Lysates were then centrifuged at 16,000×g for 20 min at 4° C. and supernatants were collected. Protein concentrations were determined using the Pierce BCA Protein Assay Kit (ThermoFisher Scientific) according to the manufacturer's instruction. […]

Pin1 [6] = target: T1, Pin1; assay: Pin1 degradation in a panel of human cancer cell lines (western blot); format: cell-based; details: all cell lines, exposed to 5 μM, 24 h (FIG. 4); read-out: Dmax (the maximal level of degradation)
Procedure: In these studies, it was evident that both agents were very effective in degrading Pin1 in all tested human cancer cell lines with DC50 values (the concentration at which 50% degradation was observed)˜500 nM and Dmax (the maximal level of degradation) close to 100% with all cell lines when exposed to 5 μM of either agent (FIG. 4).
as §2, §3

[7] = Table 1, 6-h pre-incubation followed by 2-h incubation, ± SD from duplicates

T1 sequence (Q13526 whole entry, the tested form may be a part): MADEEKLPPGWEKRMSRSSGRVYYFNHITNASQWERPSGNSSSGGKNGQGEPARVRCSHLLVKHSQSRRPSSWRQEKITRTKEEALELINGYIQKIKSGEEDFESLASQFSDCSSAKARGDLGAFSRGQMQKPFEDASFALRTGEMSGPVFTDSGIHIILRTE

CC(=O)N[C@@H](Cc1ccccc1)C(=O)N[C@@H](C(=O)N1CCCCC1C(=O)N[C@@H](Cc1ccc2ccccc2c1)C(=O)N[C@@H](CCC(N)=O)C(N)=O)C(C)OP(=O)(O)O (stereo partly shown) [158A1, reference compound] (Ac-F[X1][ξPip][2Nal]Q-NH2)
IC50 (Pin1 [1]): ~3 µM | IC50 (Pin1 [1]; [7]): 2.91 ± 0.103 µM | ΔTm (° C.) 30 min (Pin1 [2]; ± SE of four replicates): 3.40 ± 0.16 °C | ΔTm (Pin1 [2]): 3.4 °C | IC50 (Pin1 [3]): ~3 µM

CN(C(=O)CCl)[C@@H](Cc1ccccc1)C(=O)N1CCCC[C@H]1C(=O)N[C@@H](CC1CNc2ccccc21)C(=O)N[C@@H](CCCNC(N)=O)C(N)=O (stereo partly shown) [158A12, reference compound]
Pin1 degradation in cell (Pin1 [4]): significant Pin1 degradation | IC50 (Pin1 [1]; [7]): 0.009 ± 0.001 µM | ΔTm (° C.) 30 min (Pin1 [2]; ± SE of four replicates): −6.40 ± 0.04 °C | ΔTm (Pin1 [2]): −6.4 °C

COc1ccc2[nH]cc(C[C@H](NC(=O)[C@@H]3CCCCN3C(=O)[C@H](Cc3ccccc3)NC(=O)CCl)C(N)=O)c2c1 [158F10] (ClAc-Phe-[Pip]-[Trp(5-OMe)]-NH2)
IC50 (Pin1 [1]; Table 3, ± SD from duplicates): 0.126 ± 0.005 µM | ΔTm (° C.) (Pin1 [2]; Table 3, single transition, ± SE of four replicates): −10.16 ± 0.07 °C | degradation of Pin1 (western blot) (Pin1 [5]): degradation of Pin1

NC(=O)[C@H](Cc1c[nH]c2ccccc12)NC(=O)[C@@H]1CCCCN1C(=O)[C@H](Cc1c[nH]c2cc(Cl)ccc12)NC(=O)CCl [158H9] (ClAc-[Trp(6-Cl)]-[Pip]-Trp-NH2)
Dmax (Pin1 [6]): ~100% | ΔTm (Pin1 [2]): −8.41 °C

NC(=O)[C@H](Cc1c[nH]c2ccccc12)NC(=O)[C@@H]1C[C@H]2CCCC[C@@H]2N1C(=O)[C@H](Cc1c[nH]c2ccccc12)NC(=O)CCl [164A1]
IC50 (Pin1 [1]; Table 5): 1.83 ± 0.394 µM | share of first denaturation transition (Pin1 [2]; Table 4, percentage in brackets after first ΔTm): 80% | share of second denaturation transition (Pin1 [2]; Table 4, percentage in brackets after second ΔTm): 20% | ΔTm (° C.), first of two denaturation transitions (Pin1 [2]; Table 4, two transitions observed, likely incomplete complex formation): −0.38 ± 0.15 °C

O=C(CCl)N[C@@H](Cc1cccc(O)c1)C(=O)N1CCCC[C@H]1C(=O)NCCc1c[nH]c2cc(Cl)cc(Cl)c12 [164A2]
IC50 (Pin1 [1]; Table 3, ± SD from duplicates): 0.289 ± 0.023 µM | share of first thermal shift peak (Pin1 [2]; Table 3, percentage in brackets after first ΔTm): 10% | share of second thermal shift peak (Pin1 [2]; Table 3, percentage in brackets after second ΔTm): 90% | ΔTm (° C.), first of two peaks (Pin1 [2]; Table 3, two peaks observed, likely incomplete complex formation): −0.25 ± 0.31 °C
